# Reference: PMC8950173 (Pharmaceuticals, 2022)
# Assay: Dynamic PET/MR scan, brain uptake, baseline
# Assay type: in vivo
# Protocol: For the time of the experiments, female CD-1 mice (n = 6; 8–15 weeks; 29–43 g) were kept in a dedicated climatic chamber with free access to water and food under a 12:12 h dark:light cycle at a constant temperature (24 °C). The animals were anaesthetized (Anaesthesia Unit U-410, agntho’s, Lidingö, Sweden) with isoflurane (2.0%, 300 mL/min) delivered in a 60% oxygen/40% air mixture (Gas Blender 100 Series, MCQ instruments, Rome, Italy) and their body temperature maintained at 37 °C with a thermal bed system. For baseline studies [^18F]BA3 was injected into the tail vein (n = 2; 6.0 ± 0.6 MBq in 150 µL isotonic saline; 9.2 ± 0.7 nmol/kg; Am: 21 GBq/μmol, EOS) followed by a dynamic 60 min PET/MR scan (Mediso nanoScan®, Budapest, Hungary). Permeability-glycoprotein efflux transporter studies consisted in pre-treatment via i.v. injection of cyclosporine A (50 mg/kg in NaCl/DMSO/kolliphor, 7:1:2, v/v; n = 2) or of vehicle (NaCl/DMSO/kolliphor, 7:1:2, v/v; n = 2) 30 min prior to [^18F]BA3 (6.0 ± 0.9 MBq; 4.9 ± 0.7 nmol/kg; Am: 32–37 GBq/μmol, EOS). Each PET image was corrected for random coincidences, dead time, scatter and attenuation (AC), based on a whole body (WB) MR scan. The reconstruction parameters for the list mode data were 3D-ordered subset expectation maximization (OSEM), 4 iterations, 6 subsets, energy window: 400–600 keV, coincidence mode: 1–5, ring difference: 81. The mice were positioned prone in a special mouse bed (heated up to 37 °C), with the head fixed to a mouth piece for the anaesthetic gas supply with isoflurane in 40% air and 60% oxygen. The PET data were collected by a continuous WB scan during the entire investigation. Following the 60 min PET scan a T1 weighted WB gradient echo sequence (TR/TE: 20/6.4 ms, NEX: 1, FA: 25, FOV: 64 × 64 mm, Matrix: 128 × 128, STh: 0.5 mm) was performed for AC and anatomical orientation. […]. The respective brain regions were identified using the mouse brain atlas template Ma-Benveniste-Mirrione-FDG. The activity data are expressed as mean SUV of the overall ROI.
structure (smiles),measurement,setting,value
CC([18F])C(=O)NCc1ccc(C(=O)Nc2cc(-c3ccsc3)ccc2N)cc1 (stereo not drawn) [[^18F]BA3],brain peak standardized uptake value,"at 0.8 min, i.v.",~ 0.16 SUV
same,brain uptake plateau,"at 15 min, i.v.",~ 0.22 SUV
same,brain uptake after washout,at 60 min after i.v. administration,~ 0.16 SUV
